# From patent US8592401B2, “Methods and compounds for vitamin D therapy” (Proventiv Therapeutics, LLC, priority 2007, dated 2013)
# Like-named read-outs stand apart in the source and are kept apart here.
# Tests used:
# [1] = system: subjects with low serum 1,25-dihydroxyvitamin D; assay: Study in subjects with low serum 1,25-dihydroxyvitamin D (Example 1); type: in vivo, human
# Experimental: 1,25-dihydroxyvitamin D2 is used as a treatment for subjects with low serum 1,25-dihydroxyvitamin D in a study involving 50 adults, ages 18-85 years.
# The subjects have serum 1,25-dihydroxyvitamin D levels below 20 pg/dL and complete an eight-week baseline period and then 24 weeks of therapy with orally administered 1,25-dihydroxyvitamin D2.
# The initial dose of 1,25-dihydroxyvitamin D2 is 1.0 μg, with increases in steps of 0.5 μg/day permitted after four weeks. The maximum dosage is limited to 5.0 μg/day of 1,25-dihydroxyvitamin D2. Subjects are monitored at regular intervals for plasma iPTH, serum calcium and phosphorus, 24-hour and fasting urinary calcium, bone-specific serum markers, plasma total 1,25-dihydroxyvitamin D2 and routine blood chemistries and hematologies.
# renal FN1 = assay: Renal FN1 (fibronectin 1) expression by real-time PCR in adenine rats; type: in vivo, Sprague Dawley rats; set-up: extent of suppression of renal FN1 expression, compared to calcitriol-treated animals: dose or concentration left out as unconfirmed; conditions: after 12 days of treatment; for suppression of renal FN1 expression, comparison of the two compounds: 0.1 mg/kg
# Experimental: (§1) Soc. Neph., 17; 107-112]. After 4 weeks, normal diet was given to all animals. A control group receiving normal diet during the entire course of the study was used as normal control animals. After the 4 weeks of adenine diet treatment, animals were dosed i.v. 3×/week for 2 or 8 weeks with calcitriol or 1,25-dihydroxyvitamin D2 at 0.01, 0.05, 0.1, 0.25 and 0.5 mg/kg. Serum, plasma kidney and parathyroid gland were collected after 2 and 8 weeks. iPTH and FGF23 in plasma and serum, respectively, were measured using a commercial Elisa kit. Serum calcium was measured using an ORTHO-CLINICAL VITROS 250 chemistry system or an o-cresolphthalein complexone-based assay. Serum phosphorus was measured using an ORTHO-CLINICAL VITROS 250 chemistry system or an ammonium molybdate-based assay. Fibronectin 1 was measured by real-time PCR from cDNA isolated from kidney.
# DBP = target: T1, DBP (Homo sapiens, UniProt P02774); conditions: cited from earlier work
# T1 sequence (P02774 17-474): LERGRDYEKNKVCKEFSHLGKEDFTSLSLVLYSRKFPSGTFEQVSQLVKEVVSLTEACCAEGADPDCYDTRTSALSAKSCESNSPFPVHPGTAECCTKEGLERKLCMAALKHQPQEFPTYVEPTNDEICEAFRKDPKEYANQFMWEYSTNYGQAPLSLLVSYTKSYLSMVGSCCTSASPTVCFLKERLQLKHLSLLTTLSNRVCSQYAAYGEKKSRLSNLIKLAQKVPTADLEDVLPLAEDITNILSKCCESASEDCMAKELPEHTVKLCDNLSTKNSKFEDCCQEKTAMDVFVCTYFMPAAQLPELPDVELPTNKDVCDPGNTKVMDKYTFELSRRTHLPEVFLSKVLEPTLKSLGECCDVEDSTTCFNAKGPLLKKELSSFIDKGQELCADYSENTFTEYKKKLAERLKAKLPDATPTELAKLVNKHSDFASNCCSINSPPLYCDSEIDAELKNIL
# [2] = Stability of compounds in human intestine microsomes; type: in vitro ADME; conditions: microsomes 22 mg/ml, NADPH-generating system, 60 min, 37° C.
# Experimental: Equal parts of 0.1 M phosphate buffer (pH 7.4), NADPH, G-6-P, and G-6-P dehydrogenase were mixed to create a NADPH-generating system, and the final concentration of NADPH, G-6-P, and G-6-P dehydrogenase were 0.8 mM, 8 mM and 0.8 U/ml.
# 1,25-dihydroxyvitamin D2 and calcitriol were added in to the NADPH-generating system. The final concentrations of the two vitamin D compounds were each […]. A reaction was initiated by the addition of the human intestine microsomes (22 mg/ml) after a 5 min pre-incubation of the reaction at 37° C. After incubation for 60 min, the reaction was terminated by addition of cold 100% acetonitrile. An aliquot of the samples was injected into HPLC to determine the % remaining of the compound.
# C2BBe1 cells = assay: Alkaline phosphatase and CYP24 in C2BBe1 cells (real-time PCR); type: cell-based; conditions: 100 nM, 10 nM, 8 hours at 37° C.
# Experimental: C2BBe1 cells were treated with […], 100 nM, and 10 nM 1,25-dihydroxyvitamin D2 and calcitriol. Cells were incubated for 8 hours at 37° C. The cells were then lysed in 1 ml of TRIzol reagent. RNA was isolated from cell lysates through phase separation, as per the manufacturer's instructions (INVITROGEN). After cDNA synthesis, real-time PCR was used to quantify alkaline phosphatase and CYP24.
# [3] = system: rats having adenine-induced kidney failure; set-up: species or system Sprague Dawley rats; conditions: rat, in vivo, iv
# Experimental: as §1
# (§2) These findings indicate that L25-dihydroxyvitamin D2 appears to be less likely to cause calcemia than 1,25-dihydroxyvitamin D3 at doses that have equivalent efficacy.
# [4] = system: rats having adenine-induced kidney failure; assay: iPTH levels in rats having adenine-induced kidney failure; type: in vivo, Sprague Dawley rats; conditions: for suppression of serum PTH (iPTH) levels: adenine treated animals, i.v. 3×/week, after two weeks of dosing
# Experimental: as §1, with “3×/week for 2 or 8 weeks with calcitriol or 1,25-dihydroxyvitamin D2 at 0.01, 0.05, 0.1, 0.25 and 0.5 mg/kg.” left out
# For reference, PTH values are also shown for animals in the study fed a normal diet (without adenine).
# as §2
# [5] = system: rats having adenine-induced kidney failure; assay: Serum phosphorous in rats having adenine-induced kidney failure; type: in vivo, Sprague Dawley rats
# Experimental: as §1
# [6] = system: ESRD human patients undergoing chronic hemodialysis; type: in vivo
# Source text: Up to 100 ESRD (End Stage Renal Disease) human patients undergoing chronic hemodialysis are studied in a multicenter, double-blind, placebo-controlled study. The selected patients reside in two major metropolitan areas within the continental U.S., have ages between 20 and 75 years, and have a history of secondary hyperparathyroidism. They have been on hemodialysis for at least four months, have a normal (or near normal) serum albumin, and have controlled serum phosphorus (often by using oral calcium phosphate binders).
# On admission to the study, each patient is assigned at random to one of two treatment groups. One of these groups receives two consecutive 12-week courses of therapy with 1,25-dihydroxyvitamin D2; the other group receives one 12-week course of therapy with 1,25-dihydroxyvitamin D2 without interruption, by one 12-week course of placebo therapy. Each patient discontinues any 1α,25-dihydroxyvitamin D3 therapy for eight weeks prior to initiating 1,25-dihydroxyvitamin D2 therapy. Throughout this eight-week washout (or control) period and the two subsequent 12-week treatment periods, patients are monitored weekly for serum calcium and phosphorus. Serum intact PTH is monitored weekly or biweekly, and bone-specific serum markers, serum vitamin D metabolites, serum albumin, blood chemistries, hemoglobin and hematocrit are monitored at selected intervals.
# During the study, patients undergo routine hemodialysis (three times per week) using a 1.24 mM calcium dialysate and ingest calcium phosphate binders (such as calcium carbonate or calcium acetate) in an amount sufficient to keep serum phosphate maintained in a range of 3.5 to 5.5 mg/dL. Patients who develop persistent mild hypercalcemia or mild hyperphosphatemia during the treatment periods reduce their 1,25-dihydroxyvitamin D2 dosage. […] Such patients are monitored at twice-weekly intervals until the serum calcium or phosphorus is normalized, and resume 1,25-dihydroxyvitamin D2 dosing.
# bone resorption = conditions: in vivo; cited from earlier work
# Caco-2 cells = conditions: cited from earlier work
# [7] = system: markers of bone metabolism; conditions: in culture; cited from earlier work
# [8] = cited from earlier work
# healthy male humans = conditions: cited from earlier work
compound,measurement,setting,value
"C=C1/C(=C\C=C2/CCC[C@]3(C)[C@@H]([C@H](C)/C=C/[C@H](C)C(C)(C)O)CC[C@@H]23)C[C@@H](O)C[C@@H]1O [1,25-dihydroxyvitamin D2]","serum 1,25-dihydroxyvitamin D levels between doses",[1],within the patients' normal historical physiological range
same,"suppression of renal FN1 expression, comparison of the two compounds",renal FN1,No difference in suppression
same,"extent of suppression of renal FN1 expression, compared to calcitriol-treated animals",renal FN1,significantly greater
same,"DBP binding compared with 1,25-dihydroxyvitamin D3",DBP,no significant difference
same,metabolic stability (% remaining) in human intestinal microsomes,[2],metabolically unstable
same,induction of IAP (alkaline phosphatase) activity,C2BBe1 cells,not a potent inducer of IAP activity
same,doses showing significant elevation of serum calcium,[3],greater than 0.05 μg/kg
same,suppression of serum PTH (iPTH) levels,[4],in a dose dependant manner can suppress serum PTH levels
same,PTH inhibition,[4]; dose of 0.05 μg/kg,about 82.7%
same,elevation of serum phosphorous,"[5]; adenine rats, i.v. 3×/week, doses 0.01-0.5",significance only at the highest dose
same,mean serum PTH relative to pretreatment levels,[6]; after initiation of dosing,less than 50 % of pretreatment levels
same,mean serum PTH in the active group,[6]; end of the second 12-week treatment period,remained controlled
same,hypercalcemia in patients exhibiting excessive suppression of serum PTH,"[6]; human, in vivo",transient mild hypercalcemia is observed
"C[C@H](/C=C/[C@H](C)C(C)(C)O)[C@H]1CC[C@H]2/C(=C/C=C3C[C@@H](O)C[C@H](O)C3)CCC[C@]12C [19-nor-1,25-dihydroxyvitamin D2]","potency in promoting bone resorption relative to 1,25-dihydroxyvitamin D3",bone resorption,approximately 10 fold less potent
same,"affinity for DBP compared to 1,25-dihydroxyvitamin D3",DBP,3 fold lower
same,stimulation of calcium transport,Caco-2 cells,did not show a significant effect
same,"effects on VDR expression, suppression of cell proliferation, osteocalcin and alkaline phosphatase activity versus 1,25-dihydroxyvitamin D3",[7],indistinguishable
same,half-life,[8]; healthy patients,4 to 6 h
same,half-life,[8]; patients with Stage 4 CKD,20 h
same,half-life,[8]; patients with chronic renal failure,15 h
"C=C1CC[C@H](O)C/C1=C/C=C1\CCC[C@]2(C)[C@@H]([C@H](C)/C=C/[C@H](C)C(C)C)CC[C@@H]12 [Vitamin D2, ergocalciferol]",course of 25-hydroxyvitamin D2 levels,"healthy male humans; 50,000 IU",fell early and were not different from baseline at 14 days
same,potency relative to Vitamin D3,healthy male humans; healthy male humans,less than one-third as potent
"C=C1CC[C@H](O)C/C1=C/C=C1\CCC[C@]2(C)[C@@H]([C@H](C)CCCC(C)C)CC[C@@H]12 [Vitamin D3, cholecalciferol]",time of peak of 25-hydroxyvitamin D3 levels,"healthy male humans; 50,000 IU",14 days
"C=C1/C(=C\C=C2/CCC[C@]3(C)[C@@H]([C@H](C)CCCC(C)(C)O)CC[C@@H]23)C[C@@H](O)C[C@@H]1O [calcitriol, 1α,25-dihydroxyvitamin D3]","suppression of renal FN1 expression, comparison of the two compounds",renal FN1,No difference in suppression
same,stimulation of calcium transport,Caco-2 cells,934%
same,doses showing significant elevation of serum calcium,[3]; Sprague Dawley,greater than 0.10 μg/kg
same,inhibition at 0.0001 mg/kg,"[4]; Rattus norvegicus, read-out: PTH inhibition",~13.6%
same,suppression of serum PTH (iPTH) levels,[4],in a dose dependant manner can suppress serum PTH levels
same,elevation of serum phosphorous,"[5]; rat, in vivo, iv",significant elevation of phosphorous at the two highest doses
